According to patent US9920063B2, “Melampomagnolide B derivatives” (Board of Trustees of the University of Arkansas, priority 2013, dated 2018):
Where two headings read alike, the source gives them in different places.

**Q.** `C=C1C(=O)O[C@H]2[C@H]1CC/C(COC(=O)c1cc3ccccc3[nH]1)=C\CC[C@@]1(C)O[C@@H]21` [BS-1-28] was tested. Which CC50 (NCI/ADR-RES) did it give?
**A.** > 100 µM

**Q.** And the “Percent Growth” value (NCI/ADR-RES; NCl/ADR-RES, Log10 Concentration −4.0)?
**A.** −43%

**Q.** What about the “Percent Growth” value (NCI/ADR-RES; NCl/ADR-RES, Log10 Concentration −5.0) of the same compound?
**A.** −2%

**Q.** What about the “Percent Growth” value (NCI/ADR-RES; NCl/ADR-RES, Log10 Concentration −6.0) of the same compound?
**A.** 77%

**Q.** And the “Percent Growth” value (NCI/ADR-RES; NCl/ADR-RES, Log10 Concentration −7.0)?
**A.** 100%

**Q.** What about the “Percent Growth” value (NCI/ADR-RES; NCl/ADR-RES, Log10 Concentration −8.0) of the same compound?
**A.** 99%

**Q.** What about the GI50 (NCI/ADR-RES; NCl/ADR-RES, NCI five dose) of the same compound?
**A.** 2.2 µM

**Q.** What about the TGI (NCI/ADR-RES; NCl/ADR-RES, NCI five dose) of the same compound?
**A.** 9.42E−6

**Q.** What about the CC50 (DU-145) of the same compound?
**A.** 5.2 µM

**Q.** What about the “Percent Growth” value (DU-145; DU-145, Log10 Concentration −4.0) of the same compound?
**A.** −98%

**Q.** What about the “Percent Growth” value (DU-145; DU-145, Log10 Concentration −5.0) of the same compound?
**A.** −95%

**Q.** And the “Percent Growth” value (DU-145; DU-145, Log10 Concentration −6.0)?
**A.** 63%

**Q.** What about the “Percent Growth” value (DU-145; DU-145, Log10 Concentration −7.0) of the same compound?
**A.** 98%

**Q.** And the “Percent Growth” value (DU-145; DU-145, Log10 Concentration −8.0)?
**A.** 91%

**Q.** What about the GI50 (DU-145; DU-145, NCI five dose) of the same compound?
**A.** 1.21 µM

**Q.** And the TGI (DU-145; DU-145, NCI five dose)?
**A.** 2.51E−6

**Q.** What about the CC50 (SF-539) of the same compound?
**A.** 6.53 µM

**Q.** What about the “Percent Growth” value (SF-539; SF-539, Log10 Concentration −4.0) of the same compound?
**A.** −91%

**Q.** And the “Percent Growth” value (SF-539; SF-539, Log10 Concentration −5.0)?
**A.** −91%

**Q.** What about the “Percent Growth” value (SF-539; SF-539, Log10 Concentration −6.0) of the same compound?
**A.** 70%

**Q.** And the “Percent Growth” value (SF-539; SF-539, Log10 Concentration −7.0)?
**A.** 93%

**Q.** What about the “Percent Growth” value (SF-539; SF-539, Log10 Concentration −8.0) of the same compound?
**A.** 90%

**Q.** And the GI50 (SF-539; SF-539, NCI five dose)?
**A.** 1.32 µM

**Q.** And the TGI (SF-539; SF-539, NCI five dose)?
**A.** 2.71E−4

**Q.** What about the CC50 (PC-3) of the same compound?
**A.** 6.45 µM

**Q.** What about the “Percent Growth” value (PC-3; PC-3, Log10 Concentration −4.0) of the same compound?
**A.** −94%

**Q.** And the “Percent Growth” value (PC-3; PC-3, Log10 Concentration −5.0)?
**A.** −79%

**Q.** What about the “Percent Growth” value (PC-3; PC-3, Log10 Concentration −6.0) of the same compound?
**A.** 73%

**Q.** What about the “Percent Growth” value (PC-3; PC-3, Log10 Concentration −7.0) of the same compound?
**A.** 87%

**Q.** And the “Percent Growth” value (PC-3; PC-3, Log10 Concentration −8.0)?
**A.** 88%

**Q.** And the GI50 (PC-3; PC-3, NCI five dose)?
**A.** 1.42 µM

**Q.** What about the TGI (PC-3; PC-3, NCI five dose) of the same compound?
**A.** 3.62E−4

**Q.** And the CC50 (NCI-H23)?
**A.** 7.72 µM

**Q.** And the “Percent Growth” value (NCI-H23; NCI-H23, Log10 Concentration −4.0)?
**A.** −84%

**Q.** And the “Percent Growth” value (NCI-H23; NCI-H23, Log10 Concentration −5.0)?
**A.** −67%

**Q.** What about the “Percent Growth” value (NCI-H23; NCI-H23, Log10 Concentration −6.0) of the same compound?
**A.** 85%

**Q.** And the “Percent Growth” value (NCI-H23; NCI-H23, Log10 Concentration −7.0)?
**A.** 96%

**Q.** And the “Percent Growth” value (NCI-H23; NCI-H23, Log10 Concentration −8.0)?
**A.** 96%

**Q.** And the GI50 (NCI-H23; NCI-H23, NCI five dose)?
**A.** 1.69 µM

**Q.** What about the TGI (NCI-H23; NCI-H23, NCI five dose) of the same compound?
**A.** 3.62E−6

**Q.** And the CC50 (T-47D)?
**A.** > 100 µM

**Q.** And the GI50 (T-47D)?
**A.** < 0.01 µM

**Q.** What about the “Percent Growth” value (T-47D; T-47D, Log10 Concentration −4.0) of the same compound?
**A.** −33%

**Q.** What about the “Percent Growth” value (T-47D; T-47D, Log10 Concentration −5.0) of the same compound?
**A.** −43%

**Q.** What about the “Percent Growth” value (T-47D; T-47D, Log10 Concentration −6.0) of the same compound?
**A.** 35%

**Q.** What about the “Percent Growth” value (T-47D; T-47D, Log10 Concentration −7.0) of the same compound?
**A.** 40%

**Q.** And the “Percent Growth” value (T-47D; T-47D, Log10 Concentration −8.0)?
**A.** −2%

**Q.** What about the GI50 (T-47D; T-47D, NCI five dose) of the same compound?
**A.** < 0.01 µM

**Q.** What about the CC50 (ACHN) of the same compound?
**A.** 4.22 µM

**Q.** What about the “Percent Growth” value (ACHN; ACHN, Log10 Concentration −4.0) of the same compound?
**A.** −95%

**Q.** What about the “Percent Growth” value (ACHN; ACHN, Log10 Concentration −5.0) of the same compound?
**A.** −91%

**Q.** And the “Percent Growth” value (ACHN; ACHN, Log10 Concentration −6.0)?
**A.** 19%

**Q.** What about the “Percent Growth” value (ACHN; ACHN, Log10 Concentration −7.0) of the same compound?
**A.** 55%

**Q.** What about the “Percent Growth” value (ACHN; ACHN, Log10 Concentration −8.0) of the same compound?
**A.** 76%

**Q.** And the GI50 (ACHN; ACHN, NCI five dose)?
**A.** 0.342 µM

**Q.** And the TGI (ACHN; ACHN, NCI five dose)?
**A.** 1.49E−6

**Q.** What about the CC50 (OVCAR-5) of the same compound?
**A.** 8.22 µM

**Q.** What about the “Percent Growth” value (OVCAR-5; OVCAR-5, Log10 Concentration −4.0) of the same compound?
**A.** −88%

**Q.** And the “Percent Growth” value (OVCAR-5; OVCAR-5, Log10 Concentration −5.0)?
**A.** −59%

**Q.** And the “Percent Growth” value (OVCAR-5; OVCAR-5, Log10 Concentration −6.0)?
**A.** 57%

**Q.** What about the “Percent Growth” value (OVCAR-5; OVCAR-5, Log10 Concentration −7.0) of the same compound?
**A.** 96%

**Q.** What about the “Percent Growth” value (OVCAR-5; OVCAR-5, Log10 Concentration −8.0) of the same compound?
**A.** 85%

**Q.** What about the GI50 (OVCAR-5; OVCAR-5, NCI five dose) of the same compound?
**A.** 1.14 µM

**Q.** What about the TGI (OVCAR-5; OVCAR-5, NCI five dose) of the same compound?
**A.** 3.07E−6

**Q.** What about the CC50 (MCF7) of the same compound?
**A.** 6.69 µM

**Q.** What about the “Percent Growth” value (MCF7; MCF7, Log10 Concentration −4.0) of the same compound?
**A.** −56%

**Q.** And the “Percent Growth” value (MCF7; MCF7, Log10 Concentration −5.0)?
**A.** −63%

**Q.** What about the “Percent Growth” value (MCF7; MCF7, Log10 Concentration −6.0) of the same compound?
**A.** 11%

**Q.** What about the “Percent Growth” value (MCF7; MCF7, Log10 Concentration −7.0) of the same compound?
**A.** 88%

**Q.** And the “Percent Growth” value (MCF7; MCF7, Log10 Concentration −8.0)?
**A.** 63%

**Q.** What about the GI50 (MCF7; MCF7, NCI five dose) of the same compound?
**A.** 0.302 µM
